According to paper PMC6470533, “Structure–Activity Study, Characterization, and Mechanism of Action of an Antimicrobial Peptoid D2 and Its D- and L-Peptide Analogues” (Molecules, 2019):
In brackets after ≈: the same amount, converted by molar mass. Non-standard residues stand in square brackets, D forms with d. Residues, ends and D or L forms follow the SMILES beside them. No end group written: not given here. 1Nal = N[C@@H](Cc1cccc2ccccc12)C(=O)O; Nle = CCCC[C@H](N)C(=O)O

Assays:
[1] = system: membrane proton motive force of E104 cells; experiment: DiSC3(5) fluorescence, membrane depolarization; format: cell-based, Staphylococcus pseudintermedius; settings: 0.5× MIC, n = 2
Text: In this study, the DiSC3(5) probe was used to assess the effect of D2 and its structural analogues D2L, D2D, and D2R on cytoplasmic membrane depolarization. DiSC3(5) is a cationic carbocyanine dye, which accumulates on negatively charged membrane, translocates into lipid membrane with a distribution dependent on plasma and mitochondrial membrane potential. Altered emission profile of DiSC3(5) measured via fluorescence spectroscopy indicates membrane depolarization caused by proton motive force dissipation, ATP production and/or pore formation. The increment of DiSC3(5) fluorescence of labeled cells resulting from its leakage upon addition of antimicrobial agents is usually measured over time. The protonophore carbonyl cyanide metachlorophenyl hydrazone (CCCP) is used as positive control, which rapidly dissipates PMF increasing proton permeability, alters both membrane proton gradient and transmembrane electric potential and decreases cellular ATP content. Based on the MIC and growth analysis results, sub-lethal concentrations of D2 and selected analogues were chosen to perform DiSC3(5) fluorescence and macromolecule biosynthesis studies.
Freshly grown E104 cells with OD 0.2 at 600 nm were labeled with 1 µM 3,3-dipropylthiadicarbocyanine iodide [DiSC3(5)] (Sigma-Aldrich, Søborg, Denmark) in MHB. The fluorescence spectra of fluorophore-labeled cells were plotted using the LS-50B luminescence spectrometer (PerkinElmer, Waltham, MA, USA) at excitation/emission wavelengths 546 nm/573 nm using time drive application of FLWINLAB software. After reading initial stable emission spectra of DiSC3(5), labeled cells were exposed with D2 or analogues or nisin or protonophore CCCP by directly injecting the concentrated solution of agent to the cuvette, and the change of fluorescence over time was recorded until emission spectra reached to stability. The increment of DiSC3(5) fluorescence upon addition of antimicrobials or CCCP (FUafter-exposure – FUbefore-exposure) was calculated and plotted in addition to raw fluorescence spectra. Experiment was performed twice and average fluorescence change was plotted with standard deviation.

[2] = system: DNA synthesis in MRSP E104; experiment: Macromolecule biosynthesis assay, DNA (3H-thymidine); format: cell-based, Staphylococcus pseudintermedius; settings: 0.5× MIC, 20 min incubation, MRSP E104, 3H-thymidine; means of two experiments
Procedure: (§1) The effect on DNA and cell wall synthesis was investigated after 20 min of incubation of MRSP E104 with the precursors ^3H-thymidine and ^3H-glucosamine hydrochloride, respectively, as previously reported by Ling et al.. Following macromolecule precipitation, radioactivity was counted using scintillation fluid. Incorporation of ^3H- or ^14C-labeled thymidine has been used to investigate DNA replication and transcriptional activity during the cell cycle; ^3H-glucosamine hydrochloride has been used in a mode of action study for the antimicrobial peptide plectasin, which targets the cell wall precursor lipid II [44].
(§2) Macromolecules (DNA and cell wall) biosynthesis rates were measured using strain MRSP E104 following a protocol adapted from Ling et al.. Briefly, overnight culture of E104 was diluted 1:100 in MHB and freshly grown up to OD 0.2 at 600 nm. Grown cells were pelleted down by centrifugation and then resuspended in fresh MHB medium followed by incubation for 20 min on a dry heat-bath with D2 or analogues or nisin and radiolabeled precursor: (50 µCi) ^3H-Thymidine (PerkinElmer) and (5 µCi) ^3H-glucosamine hydrochloride per mL for DNA and cell wall, respectively. A positive control without antimicrobials was maintained that corresponds to 100% synthesis rate. After 20 min of incubation, samples were precipitated with equal volume of cold 30% trichloroactic acid (TCA Sigma, Søborg, Denmark) on ice. After 15 to 30 min of incubation on ice, precipitates were filtered on a membrane filter and subsequently washed twice with cold 15% TCA and twice with cold water using a vacuum manifold. Next, filters were air dried overnight and then moved to 10 mL scintillation vials. Finally, 3 mL scintillation fluid was added to each vial and ^3H count was taken in Beckman Coulter LS6500 liquid scintillation counter for 1 min. The radioactive counts of the control samples with no antimicrobial exposure were considered to have 100% precursor incorporation and macromolecule synthesis. The percentage rates of macromolecule synthesis in the antimicrobial-exposed samples were calculated compared to control. Each experiment was performed twice with a technical replicate, and the average rates of synthesis were plotted.

S. aureus = system: S. aureus; set-up: method as in PMID 28262682; settings: cited from earlier work
[3] = system: Staphylococcus aureus (ATCC 29213); format: cell-based; settings: ATCC 29213, 18 h
[4] = system: Methicillin resistant Staphylococcus pseudintermedius, (C22963); format: cell-based; settings: 18 h
[5] = system: Pseudomonas aeruginosa (ATCC 27853); format: cell-based; settings: ATCC 27853, 18 h
Procedure: To explore the antimicrobial activity of the library of peptides and peptidomimetics, they were tested against Acinetobacter baumannii, Corynebacterium auriscanis, Escherichia coli, Enterococcus faecalis, Enterococcus faecium, Klebsiella pneumonia, Proteus mirabilis, and Pseudomonas aeruginosa. Bacteria grown on agar plates for 18 h at 37 °C were diluted to ~1 × 10^8 CFU/mL in Mueller–Hinton broth (MHB). Two-fold serial dilutions of peptides and peptidomimetics in MHB II were inoculated with bacteria to achieve a final concentration of 5 × 10^5 CFU/mL in polypropylene 96 U-well microtiter plates (Almeco, Esbjerg, Denmark), followed by incubation at 37 °C in ambient air for 18 h. The MIC values were determined as the lowest concentration showing no visible bacterial growth. Experiments were performed twice (in technical triplicates) on two different days.

MRSP ST71 strain E104 = experiment: Growth curve analysis (BioScreen); format: cell-based, Staphylococcus pseudintermedius; settings: at the MIC, MRSP E104, OD600, 6 h, 37 °C
Procedure: First, we performed growth curve analysis using the well-characterized MRSP ST71 strain E104, which is resistant to a number of antibiotics. […] A well-characterized antimicrobial peptide, nisin, was used as control. […] Increased concentrations of nisin inhibited proportionally the growth of E104, both at sub-MIC and MIC concentrations.
The effect of D2 or analogues or nisin on the growth of MRSP strain E104 was evaluated using BioScreen (Oy Growth Curves Ab LTd, Helsinki, Finland). Freshly grown culture of E104 was diluted to OD 0.2 at 600 nm, supplemented with increased concentration of antimicrobials and distributed in a 100 well honeycomb micro-plate with volume 100 μL. The plate was incubated for 6 h at 37 °C with continuous shaking. The OD600 of each micro-culture was measured and recorded every 15 min after a 5 s pause of shaking in automatic mode. Recorded OD was plotted against time to prepare the growth curves. Experiment was performed twice and one representative result was presented.

red blood cell (RBC) = settings: 0.5% RBC suspension in PBS, 1 h, 37 °C, read at 414 nm, normalized to mellitin and PBS, triplicates
Procedure: Briefly, 75 µL of peptide in PBS was mixed with 75 µL of a 0.5% red blood cell (RBC) suspension in PBS, and incubated for 1 h at 37 °C. The hemoglobin release was then measured at 414 nm and normalized, using mellitin as positive control and PBS as negative control. Experiments were done in triplicates.

[6] = system: Methicillin sensitive Staphylococcus pseudintermedius (26916); format: cell-based; settings: 18 h
[7] = system: cell wall synthesis in MRSP E104; experiment: Macromolecule biosynthesis assay, cell wall (3H-glucosamine hydrochloride); format: cell-based, Staphylococcus pseudintermedius; settings: 0.5× MIC, 20 min incubation, MRSP E104, 3H-glucosamine hydrochloride; means of two experiments
Procedure: as §1, §2

nisin (ITSISLCTPGCKTGALMGCNMKTATCHCSIHVSK; also: lantibiotic: lanthionine rings and dehydro residues, places not given here; UniProt P13068 24-57, looked up) [well-characterized antimicrobial peptide used as control, reference compound]
effect on PMF (membrane depolarization, DiSC3(5) fluorescence) [1]: does not have any effect on PMF
inhibition of DNA biosynthesis rate [2]: 45%

KLKLLLLLKLK-NH2
antimicrobial activity (MIC) against S. aureus (S. aureus): 16 µg/mL

CCCC[C@H](N)C(=O)N[C@@H](CCCCN)C(=O)N[C@@H](Cc1cccc2ccccc12)C(=O)N[C@@H](CCCCN)C(=O)N[C@@H](Cc1ccccc1)C(=O)N[C@@H](Cc1cccc2ccccc12)C(=O)N[C@@H](CCCCN)C(=O)N[C@@H](CCCCN)C(N)=O [D2R] (H-[Nle]K[1Nal]KF[1Nal]KK-NH2; N-terminus assumed)
MIC SA [3]: 32 µg/mL (≈ 27 µM)
MIC MRSP [4]: 4 µg/mL (≈ 3.38 µM)
effect on PMF (membrane depolarization, DiSC3(5) fluorescence) [1]: strongest effect on PMF
inhibition of DNA biosynthesis rate [2]: < 5%
MIC PA [5]: 32 to 64 µg/mL
growth curve, change of cell optical density over time (MRSP ST71 strain E104): cell lysis
HA, percentage of hemolysis at 150 µM (red blood cell (RBC)): 23%
MIC MSSP [6]: 16 µg/mL (≈ 13.5 µM)
effect on (inhibition of) cell wall synthesis [7]: 22%

CCCC[C@H](NC(=O)[C@H](CCCCN)NC(=O)[C@H](Cc1cccc2ccccc12)NC(=O)[C@H](CCCCN)NC(=O)[C@H](Cc1ccccc1)NC(=O)[C@H](Cc1cccc2ccccc12)NC(=O)[C@H](CCCCN)NC(=O)[C@@H](N)CCCCN)C(N)=O [D2L] (H-KK[1Nal]FK[1Nal]K[Nle]-NH2; N-terminus assumed)
MIC SA [3]: 32 µg/mL (≈ 27 µM)
MIC MRSP [4]: 8 µg/mL (≈ 6.75 µM)
effect on PMF (membrane depolarization, DiSC3(5) fluorescence) [1]: strongest effect on PMF
inhibition of DNA biosynthesis rate [2]: 17%
MIC PA [5]: 16 µg/mL (≈ 13.5 µM)
growth curve, change of cell optical density over time (MRSP ST71 strain E104): cell lysis
HA, percentage of hemolysis at 150 µM (red blood cell (RBC)): 35%
MIC MSSP [6]: 16 µg/mL (≈ 13.5 µM)
effect on (inhibition of) cell wall synthesis [7]: 31%
